Measurements reported in patent publication US20250059139A1, “COMPOUNDS FOR TREATMENT OF CANCER” (THE JOHNS HOPKINS UNIVERSITY, priority 2021, published 2025).

Key:
thymus = test: AHR agonist induced thymus regression in FVB male mice; type: in vivo, mouse; conditions: mouse, in vivo, po, 30 mg/kg/day
Procedure: To evaluate AHR agonist induced thymus regression, groups of five 4-week old FVB male mice from Jackson Laboratory were treated with either vehicle, Linomide, TasQ, or its analogs daily by orally gavage for 2 weeks and then the thymus removed and weighted.
Oral Drug treatment. TasQ at the indicated dose was initially dissolved with equal molar 1 N sodium hydroxide. This solution was diluted with sterile water and the mixture stirred for 1 hr. The pH was then adjusted with 1 N HCl to 8.9 and 200 μL given daily via oral gavage.
This means that in the clinical setting, dose-escalation above 1 mg/d of TasQ as needed to reach this >2 μM blood level for optimal anti-cancer efficacy will also enhance unwanted off-target AHR induction. Therefore, a medicinal chemical approach was undertaken to identify third generation quinoline-3-carboxamide analogs with increased HDAC4 inhibition, but with reduced AHR agonism. The approach taken is based upon the earlier SPR analysis documenting that TasQ linked to the surface chip via its aniline-N is a potent binder of HDAC4. Thus, a series of quinoline-3-carboxamide analogs were synthesized focusing upon adduct changes at the aniline-N. These analogs were synthesized as described in Example 1, and were initially screened for their AHR agonist activity using the in vitro human cell-based ARE-driven luciferase reporter gene assay (Table 3).

[1] = tested on: CWR-22Rv1 dominant-positive mutant HIF-1α cells; test: In vivo growth of CWR-22Rv1 xenografts expressing dominant-positive mutant HIF-1α; set-up: species or system human; conditions: daily oral 10 mg/kg/d
Source text: Prostate Cancer Models. The source, history, and characteristics of the human prostate cancer cell lines and PDXs used, as well as cell culture conditions for their in vitro maintenance and the in vivo protocol for xenograft growth in triple immune-deficient NSG (i.e. NOD.Cg-PrkdcScidIl2rgtmlWji/Szj), adult (>8 week old) male mice obtained from the Sidney Kimmel Comprehensive Cancer Center (SKCCC) Animal Core Facility are described previously (Isaacs 2013; Brennen et al. JCI Insight. 2021, 6(8):e146827; Zhu et al. Oncogene 2020, 39(45): 6935-6949). […] In vitro growth curves were determined as described (Isaacs 2013). In vivo growth response to oral daily TasQ (10 mg/kg/d) of TRAMP-C2 mouse prostate cancers was evaluated in C57BL/6J syngeneic wild type vs. NOX-2 vs. iNOS null male mice obtained from Jackson Laboratory (Bar Harbor, ME). Growth response to oral daily TasQ (10 mg/kg/d) of TRAMP-C2 and B6CaP mouse prostate cancers was also evaluated in S100A9 null C57BL′6J male mice obtained from Dmitry Gabrilovich (Wistar Institute). […] In vitro growth curves were determined as described (Isaacs 2013). Growth response to daily oral TasQ vs. ESATA-20 (both at 10 mg/kg/d) of Myc-CaP-CR mouse prostate cancer was evaluated in syngeneic FVB/NJ castrate male mice from Jackson Laboratory. […]

fl-HDAC4 = molecular target: T1, fl-HDAC4 (Homo sapiens, UniProt P56524); test: HDAC4 enzymatic assay with Lys(Tfa)-AMC substrate; type: biochemical
T1 construct: Full-length (fl) [A.A. 1-1082] recombinant human histone deacetylase 4 (rhHDAC4) protein; FLAG (N); GST (given as 'with or without'); made in house; host or cells: HEK293-T
Procedure: HDAC4 Enzymatic Assay. HDAC4 activity of the various recombinant forms used through these studies was assayed using the small non-protein Lys(Tfa)-AMC as described previously (Bottomley et al. J. Biol. Chem. 2008, 283:26694-26704). The specificity of this assay is documented via its inhibition by a small molecule trifluoroacetylthiophene-trifluoromethylketone derivative (TFT-PIP) described previously (id.).
Thus, TasQ's inhibition of HDAC4/NCoR1 formation involves only its binding to HDAC4. To resolve whether such TasQ binding involves the ZCD vs. ZRD in HDAC4, we took advantage of the fact that while HDAC4 has only marginal deacetylase activity against acetylated lysine-containing proteins, it can deacetylate a small non-protein trifluoroacetamide substrate (a.k.a., Lys(Tfa)-AMC). This reaction is inhibited by a small molecule trifluoroacetylthiophene-trifluoromethylketone derivative [a.k.a., TFT-PIP (FIG. 16)] due to its binding to the catalytic Zn^2+ in the ZCD, which locks the ZRD in the open conformation (Bottomley 2008).

[2] = cited from earlier work
HIF-1α protein in tumors = conditions: daily oral 10 mg/kg/d; cited from earlier work

T1 sequence (P56524 whole entry): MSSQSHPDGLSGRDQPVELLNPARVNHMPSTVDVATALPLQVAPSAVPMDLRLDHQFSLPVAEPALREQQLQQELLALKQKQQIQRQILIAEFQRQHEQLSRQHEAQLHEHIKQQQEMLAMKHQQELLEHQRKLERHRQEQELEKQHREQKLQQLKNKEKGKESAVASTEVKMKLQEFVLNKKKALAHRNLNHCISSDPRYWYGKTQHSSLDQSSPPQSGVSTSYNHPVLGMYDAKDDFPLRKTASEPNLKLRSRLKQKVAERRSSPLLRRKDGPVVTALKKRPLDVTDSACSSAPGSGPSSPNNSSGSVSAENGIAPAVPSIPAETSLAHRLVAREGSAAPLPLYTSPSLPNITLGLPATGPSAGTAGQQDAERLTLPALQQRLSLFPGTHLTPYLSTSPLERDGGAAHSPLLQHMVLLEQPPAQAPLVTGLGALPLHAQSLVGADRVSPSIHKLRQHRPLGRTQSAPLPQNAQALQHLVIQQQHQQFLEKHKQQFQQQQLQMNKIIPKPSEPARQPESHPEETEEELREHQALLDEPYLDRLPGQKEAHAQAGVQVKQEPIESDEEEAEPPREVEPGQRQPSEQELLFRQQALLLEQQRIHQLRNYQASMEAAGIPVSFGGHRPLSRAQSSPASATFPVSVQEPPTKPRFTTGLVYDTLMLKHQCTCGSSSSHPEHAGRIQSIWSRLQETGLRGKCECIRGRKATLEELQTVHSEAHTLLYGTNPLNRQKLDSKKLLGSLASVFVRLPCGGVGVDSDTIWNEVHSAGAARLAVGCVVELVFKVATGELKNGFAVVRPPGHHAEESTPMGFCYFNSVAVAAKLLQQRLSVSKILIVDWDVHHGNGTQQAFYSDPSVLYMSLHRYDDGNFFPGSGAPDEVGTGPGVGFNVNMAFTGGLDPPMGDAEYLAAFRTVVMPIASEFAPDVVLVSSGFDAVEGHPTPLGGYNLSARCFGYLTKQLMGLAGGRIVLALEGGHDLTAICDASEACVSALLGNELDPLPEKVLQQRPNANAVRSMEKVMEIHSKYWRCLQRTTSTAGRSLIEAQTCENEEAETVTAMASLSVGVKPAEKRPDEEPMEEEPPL

SMILES	induction of thymus regression (thymus)	growth inhibition of dominant-positive mutant HIF-1α tumors [1]	effect on enzymatic activity of fl-HDAC4 (fl-HDAC4)	blood concentrations maintained ([2]; daily oral 10 mg/kg/d)	serum nadir ([2]; oral 5 mg/kg/d, at 24 hrs)	lowering of HIF-1α protein in tumors (HIF-1α protein in tumors)
COc1cccc2c1c(O)c(C(=O)N(c1ccc(C(F)(F)F)cc1)C1CCCCC1)c(=O)n2C [ESATA-20]	lack of induction					
COc1cccc2c1c(O)c(C(=O)N(C)c1ccc(C(F)(F)F)cc1)c(=O)n2C [TasQ, Tasquinimod]		< 25%	did not inhibit	> 1000 nM	1.08 ± 0.21 µM	> 50%
